Among the test systems are CCRF-CEM leukemia; HCC-2998 colon; K-562 leukemia; SNB-19 CNS; SW-620 colon; HS 578T breast; NCI-H522 lung; HOP-92 NSCLC; UACC-257 melanoma; TK-10 renal.
Assay in all cases: inhibition of tumour cell growth, NCI panel, 48 h

This note sets out measurements from PubChem BioAssay (NCI).

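In this assay, cells in 96-well plates receive the compound at five concentrations for 48 hours. Endpoints are linearly interpolated between the surrounding concentrations. GI50: concentration for 50% inhibition of growth. TGI: concentration producing complete growth inhibition.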

Turning to `Cc1c(Nc2nccc3cc(CN4CC[C@@H](O)C4)cnc23)cccc1-c1cccc(-c2nc3cc(CN4CC[C@@H](C(=O)O)C4)cc(C#N)c3o2)c1C`, the GI50 was 3.2 µM in the test on CCRF-CEM leukemia; 12.7 µM with HCC-2998 colon; 1.44 µM in the test with K-562 leukemia; 16.5 µM in the test on SNB-19 CNS; 4.67 µM in the test with SW-620 colon; 15.1 µM in the test on HS 578T breast. Moreover, the GI50 in the test with NCI-H522 lung was 13.1 µM; with HOP-92 NSCLC it was 2 µM; in the test with UACC-257 melanoma, 14.2 µM; in the test on TK-10 renal, 20.5 µM. Besides, the TGI was more than 100 µM with CCRF-CEM leukemia; 49 µM with HCC-2998 colon; more than 100 µM in the test on K-562 leukemia; 46.2 µM in the test with SNB-19 CNS; 17.9 µM with SW-620 colon; more than 100 µM with HS 578T breast. The TGI with NCI-H522 lung is 30.6 µM; with HOP-92 NSCLC, more than 100 µM; in the test with UACC-257 melanoma, 32.5 µM; in the test with TK-10 renal it was more than 100 µM.
Regarding `CN(C)CCN1C(=O)c2cccc3c(/C=C/CN4C(=O)c5cccc6cccc(c56)C4=O)ccc(c23)C1=O`, the GI50 in the test with CCRF-CEM leukemia was 0.339 µM; with HCC-2998 colon, more than 100 µM; in the test with SNB-19 CNS, 13.9 µM; with SW-620 colon, more than 100 µM; in the test on HS 578T breast, 13.8 µM; with NCI-H522 lung, more than 100 µM. In addition, the GI50 in the test on HOP-92 NSCLC was 3.67 µM; in the test with UACC-257 melanoma, more than 100 µM; in the test with TK-10 renal, 34.7 µM. For the same compound, the TGI in the test on CCRF-CEM leukemia is 69.9 µM; in the test on HCC-2998 colon it was more than 100 µM; with SNB-19 CNS, 26.9 µM; with SW-620 colon it was more than 100 µM; with HS 578T breast, 35.7 µM; in the test on NCI-H522 lung, more than 100 µM. Further, the figures for the TGI in the test with HOP-92 NSCLC, in the test on UACC-257 melanoma and in the test with TK-10 renal were 20.1 µM, more than 100 µM and 82.8 µM, respectively.
Turning to `CC12OC(C(=O)C13CC3)C1C(=O)c3c(O)ccc(O)c3C(=O)C12` (stereo not drawn), the GI50 was 11.9 µM in the test with HCC-2998 colon; 13.8 µM in the test on K-562 leukemia; 28.9 µM in the test on SNB-19 CNS; 16.3 µM with HS 578T breast; 16.1 µM with NCI-H522 lung; 11.9 µM with HOP-92 NSCLC. Moreover, the values for the GI50 in the test on UACC-257 melanoma and in the test on TK-10 renal were 13.9 µM and 15.6 µM, respectively. For the same compound, the TGI in the test on HCC-2998 colon is 27.4 µM; in the test with K-562 leukemia it was 34.6 µM; in the test with SNB-19 CNS, more than 100 µM; in the test with HS 578T breast, 46.2 µM; with NCI-H522 lung it was 32 µM; in the test with HOP-92 NSCLC it was 41 µM. Moreover, the TGI is 29.1 µM in the test with UACC-257 melanoma and 35.2 µM in the test on TK-10 renal.
`CC(C)C1(NC(=O)C2CC3c4cccc5[nH]cc(c45)CC3N(C)C2)OC2(O)C3CCCN3C(=O)C(Cc3ccccc3)N2C1=O` (stereo not drawn): the TGI in the test on CCRF-CEM leukemia, in the test on HCC-2998 colon, in the test on SNB-19 CNS, with SW-620 colon, in the test on HS 578T breast and with NCI-H522 lung was more than 100 µM in each case. Also, the TGI in the test with HOP-92 NSCLC, in the test on UACC-257 melanoma and with TK-10 renal was more than 100 µM throughout.
For `O=C(O)COc1ccc(OCC(=O)O)cc1`, the GI50 is 0.2 µM in the test on CCRF-CEM leukemia; 1.5 µM with HCC-2998 colon; 2.49 µM in the test with K-562 leukemia; 0.273 µM with SNB-19 CNS; 0.312 µM with SW-620 colon; 1.97 µM in the test on HS 578T breast. In addition, the GI50 with NCI-H522 lung was 0.302 µM; in the test with HOP-92 NSCLC, 0.319 µM; in the test with UACC-257 melanoma, 2.53 µM. The TGI in the test with CCRF-CEM leukemia stood at 21 µM; in the test with HCC-2998 colon, 6.82 µM; in the test on K-562 leukemia, 16.6 µM; with SNB-19 CNS, 11.3 µM; with SW-620 colon, 12.8 µM; with HS 578T breast it was 13.6 µM. For the same compound, the TGI with NCI-H522 lung was found to be 3.22 µM; in the test on HOP-92 NSCLC, 7.59 µM; in the test on UACC-257 melanoma, 18.5 µM.
`C=C(C)[C@@H]1CCc2c(O)c(O)c(=O)cc(C)c2C1`: the TGI was more than 100 µM with HCC-2998 colon; more than 27.6 µM with K-562 leukemia; more than 100 µM in the test on SNB-19 CNS; more than 100 µM in the test on SW-620 colon; more than 100 µM in the test on HS 578T breast; more than 96.6 µM in the test on NCI-H522 lung. Also, the TGI in the test with HOP-92 NSCLC was 17 µM; in the test with UACC-257 melanoma, more than 100 µM; in the test with TK-10 renal, 43.7 µM.
With `CCN(CC)CCCNCc1cc(-c2ccccc2)nc2cc(Cl)ccc12`, the GI50 was 1.94 µM with HCC-2998 colon; 1.94 µM with K-562 leukemia; 10.2 µM in the test with SNB-19 CNS; 1.97 µM in the test on SW-620 colon; 2.01 µM in the test with HS 578T breast; 4.96 µM in the test with NCI-H522 lung. Besides, the GI50 in the test on HOP-92 NSCLC is 1.16 µM; in the test on UACC-257 melanoma, 2.12 µM; with TK-10 renal, 3.27 µM. In addition, the TGI in the test with HCC-2998 colon worked out at 3.89 µM; with K-562 leukemia, 6.61 µM; with SNB-19 CNS, 25.6 µM; with SW-620 colon, 3.94 µM; in the test on HS 578T breast it was 5.29 µM; in the test with NCI-H522 lung it was 17.2 µM. Also, the TGI in the test on HOP-92 NSCLC is 5.02 µM; in the test on UACC-257 melanoma it was 5.11 µM; in the test with TK-10 renal it was 10.2 µM.
